Assay results published in patent US5036046A, “Method for enhancing healing of corneal endothelial wounds” (Eye Research Institute of Retina Foundation, Inc., priority 1988, dated 1991).
Entries after “also recorded” stand apart in the source; their conditions may differ. Where two headings read alike, the source gives them in different places.

Experiments:
[1] = system: cultured rabbit corneal endothelium; assay: Pharmacological regulation of morphology and mitosis in cultured rabbit corneal endothelium; type: cell-based
[2] = system: rabbit corneal endothelial cells; assay: Cell shape morphometry of cultured rabbit corneal endothelial cells (Example 1); conditions: for potentiation of EGF-induced elongation: 10^-5 M (equimolar), in presence of EGF; for rank order of potency on corneal endothelial cell shape: cyclooxygenase inhibitors, with EGF; for cell shape at confluence: cells cultured seven days in the presence of the agent; for distribution of major axes (Amax): versus control
[3] = system: Corneal endothelial cells; assay: f-actin labelling with rhodamine labelled phallacidin in cultured corneal endothelial cells; conditions: 1 week in culture
[4] = system: cultured corneal endothelial cells; conditions: control cultures and cultures with EGF added
[5] = system: endothelium of excised corneas; assay: Shape of the cells near the wound boundary in excised corneas
[6] = system: most cell culture systems; conditions: cited from earlier work
[7] = system: Corneal endothelial cells; assay: Transmission electron microscopy of pharmacologically modulated endothelial phenotypes; conditions: treated cultures
[8] = system: endothelium of excised corneas; assay: Endothelial wound area / closure in excised corneas (specular microscopy)
[9] = system: endothelium of excised corneas; assay: Cell migration near the wound boundary in excised corneas; type: cell-based, New Zealand white rabbits; conditions: EGF 10 ng/ml, indomethacin 1 μM in M-K medium
cat corneal endothelium = conditions: 22° C.; cited from earlier work
[10] = agent added to TPA containing medium

## C=C[C@@]1(C)CC(=O)[C@]2(O)[C@@]3(C)[C@@H](O)CCC(C)(C)[C@@H]3[C@H](O)[C@H](OC(C)=O)[C@@]2(C)O1 [Forskolin]
[1]; agent added with EGF and INDO
  effect on EGF and INDO-induced elongation: prevented
  effect on cell density / mitosis in presence of EGF and INDO: inhibited endothelial mitosis

## CCCCCCCCCCCCCC(=O)O[C@@H]1[C@@H](C)[C@@]2(O)[C@@H](C=C(CO)C[C@]3(O)C(=O)C(C)=C[C@@H]23)[C@H]2C(C)(C)[C@]12OC(C)=O [TPA]
[1]
  cell density / mitosis, agent alone: increased cell density
  cell shape / elongation, agent alone: caused elongation

## C[C@@H]1C[C@H]2[C@@H]3CCC4=CC(=O)C=C[C@]4(C)[C@@]3(F)[C@@H](O)C[C@]2(C)[C@@]1(O)C(=O)CO [dexamethasone]
[2]
  potentiation of EGF-induced elongation: has no effect

## CC(C(=O)O)c1ccc(-c2ccccc2)c(F)c1 (stereo not shown) [flurbiprofen]
[2]
  rank order of potency on corneal endothelial cell shape: indomethacin<suprofen<flurbiprofen

## COc1ccc2c(c1)c(CC(=O)O)c(C)n2C(=O)c1ccc(Cl)cc1 [indomethacin]
[2]
  cell shape at confluence: elongated at confluence with a stellate shape
  rank order of potency on corneal endothelial cell shape: indomethacin<suprofen<flurbiprofen
[2]; cultured with agent
  distribution of major axes (Amax): increases
[3]
  f-actin staining pattern: diffuse reticular staining throughout the cytoplasm
[1]; [10]
  effect on TPA-induced elongation: marked enhancement of cellular elongation
  effect on cell density / mitogenic response to TPA: had no effect on final cell density
[4]
  synthesis of pgE2: totally inhibits

## CCCCC[C@H](O)/C=C/[C@@H]1[C@@H](C/C=C\CCCC(=O)O)[C@@H](O)C[C@H]1O [pgF2α]
[2]; increasing concentrations added to cells grown with EGF and indomethacin
  effect on the elongation of Amax produced by EGF and indomethacin: has no effect

## CC(C(=O)O)c1ccc(C(=O)c2cccs2)cc1 (stereo not shown) [suprofen]
[2]
  potentiation of EGF-induced elongation: Potentiation of EGF-induced elongation also occurs
  rank order of potency on corneal endothelial cell shape: indomethacin<suprofen<flurbiprofen

## Cholera toxin
[1]
  cell shape / elongation, agent alone: had no effect on cell shape
  effect on EGF and INDO-induced elongation: antagonized
  effect on EGF-induced elongation: EGF-induced elongation did not occur
  effect on TPA-induced elongation: did not prevent elongation
  effect on cell density / mitogenic response to TPA: potentiate the mitogenic response
  effect on cell density / mitosis in presence of EGF and INDO: without preventing increased cell density
  effect on the mitogenic effect of EGF: potentiated

## Pertussis toxin
[1]
  cell density / mitosis, agent alone: had no effect on either parameter
  cell density in combination with EGF or INDO: without significantly altering cell density
  cell shape / elongation, agent alone: had no effect on either parameter
  cell shape in combination with EGF or INDO: restored polygonal cell shape

## epidermal growth factor [EGF]
[2]; at confluence, versus control conditions
  cell density: little or no effect
[2]
  cell shape at confluence: spindle-shaped at confluence
[2]; cultured with agent
  distribution of major axes (Amax): significantly greater distribution of major axes
[2]; cultured with agent, perfectly round cell 3.14
  ratio Per/Amax: decreases significantly
[5]; EGF+indomethacin at 50, 100, 150 minutes, EGF at 100, 150 minutes, p<0.001
  relative average percent change of the shape factor, difference from control (FIG. 3): significantly different from the control group
[5]; one cornea of each group, control 200 minutes
  time of the peak of the shape change: 150 min
[6]
  time at which DNA synthesis reaches a maximum: about 22 hours
  time at which increased DNA synthesis begins after addition: approximately 15 hours
[7]
  ultrastructure by transmission electron microscopy: Junctional complexes were absent
[8]; EGF 10 ng/ml, indomethacin 1 μM in M-K medium
  wound closure time compared with the control group: shortened the wound closure time
[8]; EGF 10 ng/ml, indomethacin 1 μM in M-K medium, control 20 minutes
  time of maximum wound area after wounding: 10 min
[8]; EGF 10 ng/ml, indomethacin 1 μM in M-K medium, control about 240 minutes
  time for wound area to decrease to 50% of the original size: ≤ 120 min
[8]; after wounding, EGF treated
  time for wounds to close to 80% of the original size: ≤ 250 min
[9]
  migration of cells near the wound boundary compared with the control group: migrated significantly more; also recorded: significantly increased migration
Cat corneal endothelium
  time for association to be complete: approximately 120 minutes
[4]
  synthesis of pgE2: unaffected
